Substitutions are numbered along the chain they refer to. Peptide text beside a SMILES is read from it.
Tests used:
Format in all cases: cell-based
[1] = target: T1, mutant C140 receptor 35His (serine-35 replaced with histidine) (Mus musculus, UniProt P55086, S39H); assay: 45Ca release by Xenopus oocytes expressing mutant C140 receptor 35His; details: 35His receptor
T1 construct: Site-directed mutagenesis was employed to construct mutant receptors in the pSG-5; expressed in transfected cells; host or cells: Xenopus laevis oocytes injected with capped cRNA
T1 sequence (P55086 32-399 S39H limits assumed): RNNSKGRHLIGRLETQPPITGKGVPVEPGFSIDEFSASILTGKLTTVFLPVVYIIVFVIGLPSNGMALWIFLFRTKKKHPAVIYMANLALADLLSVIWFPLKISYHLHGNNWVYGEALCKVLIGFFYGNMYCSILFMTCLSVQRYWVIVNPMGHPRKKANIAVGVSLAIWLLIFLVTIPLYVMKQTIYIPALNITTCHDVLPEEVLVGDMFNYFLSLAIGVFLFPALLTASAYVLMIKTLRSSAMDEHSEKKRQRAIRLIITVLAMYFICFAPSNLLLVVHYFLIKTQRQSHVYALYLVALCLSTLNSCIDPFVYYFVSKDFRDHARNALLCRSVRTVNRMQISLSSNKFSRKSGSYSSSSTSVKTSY
From the text: (§1) Both native and mutant C140 receptors were produced in oocytes and activated with a peptide mimicking the new amino-terminus", or by the proteolytic enzyme trypsin (which cleaves the extracellular region). Native receptors were produced by cloning the coding region of the receptor gene, using the polymerase chain reaction, into the expression vector pSG-5 (Green, S. et al., Nucleic Acid Res (1988) 16:369). The orientation and integrity of the cloned coding region was verified by determining the nucleotide sequence with the Sanger chain-termination method. Site-directed mutagenesis was employed to construct mutant receptors in the pSG-5. […]
(§2) Oocytes from Xenopus laevis were harvested and prepared using published techniques (Coleman, A., in Hames, B. D., and Higgins, S. J., eds, Transcription and Translation: A Practical Approach, IRL Press, pp. 271-302; Williams, J. A., et al. Proc Natl Acad Sci USA (1988) 85:4939-4943]. To remove follicular cells, oocytes were incubated for 1.5 h with shaking in calcium-free Barth's containing 2 mg/ml each of collagenase 1A and hyaluronidase 1S. The oocytes were then washed five times in regular Barth's and incubated at 18° C. in Barth's medium containing 100 U/ml penicillin, 100 μg/ml streptomycin, and 2.5 mM sodium pyruvate. […] The harvested medium was analyzed by scintillation counting. […]

[2] = target: T2, mutant C140 receptor 35Arg (serine-35 replaced with arginine) (Mus musculus, UniProt P55086, S39R); assay: 45Ca release by Xenopus oocytes expressing mutant C140 receptor 35Arg; details: 35Arg receptor
T2 construct: Site-directed mutagenesis was employed to construct mutant receptors in the pSG-5; expressed in transfected cells; host or cells: Xenopus laevis oocytes injected with capped cRNA
T2 sequence (P55086 32-399 S39R limits assumed): T1 sequence (P55086 32-399 S39H limits assumed) with H8R
From the text: as §1, §2

[3] = target: T3, mutant C140 receptor 35Pro (serine-35 replaced with proline) (Mus musculus, UniProt P55086, S39P); assay: 45Ca release by Xenopus oocytes expressing mutant C140 receptor 35Pro; details: 35Pro receptor
T3 construct: Site-directed mutagenesis was employed to construct mutant receptors in the pSG-5; expressed in transfected cells; host or cells: Xenopus laevis oocytes injected with capped cRNA
T3 sequence (P55086 32-399 S39P limits assumed): T1 sequence (P55086 32-399 S39H limits assumed) with H8P
From the text: as §1, §2

[4] = peptide at 100 μM, same oocytes after trypsin stimulation
[5] = trypsin at 300 pM, increase compared to water-injected oocytes

Row | Fold increase in 45Ca [1, 5] [fold] | Fold increase in 45Ca [2, 5] [fold] | Fold increase in 45Ca [3, 5] [fold] | Compound | Fold increase in 45Ca [1, 4] [fold] | Fold increase in 45Ca [2, 4] [fold] | Fold increase in 45Ca [3, 4] [fold]
1 | – | – | – | CC[C@H](C)[C@H](NC(=O)[C@H](CC(C)C)NC(=O)[C@@H](N)CO)C(=O)NCC(=O)N[C@@H](CCCNC(=N)N)C(=O)N[C@@H](CC(C)C)C(=O)O [SLIGRL] (H-SLIGRL-OH) | 23 | 15 | 23
2 | 0 | 0 | 0 | trypsin | – | – | –

From patent US6043212A, “Recombinant C140 receptor, its agonists and antagonists, and nucleic acids encoding the receptor” (COR Therapeutics, Inc., priority 1995, dated 2000)
